Assay results as given in patent publication US20230250392A1, “MEDIA AND METHODS FOR ENHANCING THE SURVIVAL AND PROLIFERATION OF STEM CELLS” (STEMCELL TECHNOLOGIES CANADA INC., priority 2017, published 2023).

Columns and labels:
Format in all cases: cell-based, human
[1] = tested on: WLS-1C and H1 cells; assay: Example 11: cloning efficiency with albumins of different suppliers with or without two free fatty acids; conditions: for cloning efficiency of albumin without the additional two free fatty acids: compared among suppliers' albumins; for cloning efficiency when albumin is provided along with two free fatty acids: versus the same albumin without added fatty acids
[2] = tested on: H1 and WLS-1C hPSCs; assay: Example 12: cloning efficiency with individual free fatty acids in the presence of a carrier; conditions: 600 μg free fatty acid per gram of carrier spiked into mTeSR1 plus 10 μM Y-27632
Method: 12-well culture plates were coated with 0.5 mL of cloning matrix or extracellular matrix (1:25 dilution in […] Dilution Buffer) and placed at room temperature for 1 hour. The matrix was then aspirated and 1 mL of media (mTeSRTM1 or TeSRTM-E8TM supplemented with either 10 μM Y27632 or media comprising lipid-enriched albumin, GABA, pipecolic acid, lithium chloride, FGF, TGFβ and Y-27632 (hereafter termed cloning supplement)) was added to each well and the plate was placed at 37° C. for 1 hour. hPSC lines were dissociated to single cells and seeded into the pre-warmed plates at 25 cells/cm^2 and placed at 37° C. for two days. The cells were then fed with fresh media (mTeSRTM1 or TeSRTM-E8TM supplemented with either 10 μM Y-27632 or cloning supplement) and placed at 37° C. for two days. On day four the cells were then fed with 1 mL of mTeSRTM1 or TeSRTM-E8TM without additives and fed daily until day seven. Cells were then fixed using 4% paraformaldehyde and stained for alkaline phosphatase. Undifferentiated colonies were then counted and cloning efficiency was determined using the following calculation: (Number of undifferentiated colonies at day seven (per well)/Number of cells seeded at day zero (per well))×100. (Error bars represent standard deviation from three biological replicates). In this experiment, 600 μg of the shown free fatty acids were spiked into culture medium (mTeSRTM1 plus 10 μM Y-27632) per gram of carrier also spiked into the culture medium. Cloning efficiencies were calculated as described in Example 1, for example.

[3] = tested on: H1, WLS-1C, and H9 hPSCs; assay: Example 13: cloning efficiency with detrimental fatty acids loaded onto a BSA sample; conditions: 300 μg/g loaded onto a specific BSA sample
Method: In the experiment shown in FIG. 13, 300 μg/g of either arachidonic acid or α-linolenic acid were loaded onto a specific BSA sample and added to a culture comprising H1, WLS-1C, and H9 hPSCs.

[4] = tested on: WLS-1C, H1 and STiPS-F016 cells; assay: Example 8: cloning efficiency with lipid poor albumin loaded with one, two or three fatty acids; conditions: for cloning efficiency in comparison to the 3 fatty acid-loaded albumin: H1, WLS-1C, STiPS-F016, fatty acid loaded on lipid poor albumin at 600 μg per gram, final 6 ng/mL
Method: In particular, each of the one or more fatty acids was incubated with albumin at a concentration of 600 μg of each fatty acid per gram of albumin. The product of such incubation was subsequently added to the culture medium at a final concentration of 6 ng/mL.

A2: BSA of Supplier A lot 2, already comprising 3000-7000 ug/g overall fatty acid
cloning efficiency of albumin without the additional two free fatty acids [1]: lowest cloning efficiencies | cloning efficiency when albumin is provided along with two free fatty acids [1]: not enhanced

CC/C=C\C/C=C\C/C=C\CCCCCCCC(=O)O [α-linolenic acid]
effect on survival and proliferation (cloning efficiency) [2]: detrimental | cloning efficiency of the tested BSA sample [3]: decreased the cloning efficiency

CCCCC/C=C\C/C=C\C/C=C\C/C=C\CCCC(=O)O [arachidonic acid]
effect on survival and proliferation (cloning efficiency) [2]: detrimental | cloning efficiency of the tested BSA sample [3]: decreased the cloning efficiency

CCCCCCCCCCCCCC(=O)O [myristic acid]
effect on survival and proliferation (cloning efficiency) [2]: helpful in enhancing the survival and proliferation

CCCCC/C=C\C/C=C\CCCCCCCC(=O)O [linoleic acid]
cloning efficiency relative to control and oleic and/or palmitic acid ([4]; WLS-1C and H1, only this fatty acid loaded on albumin at 600 μg per gram): reduce cloning efficiency

CCCCCCCCCCCCCCCCCC(=O)O [stearic acid]
effect on survival and proliferation (cloning efficiency) [2]: helpful in enhancing the survival and proliferation

CCCCCCCCCCCCCCCC(=O)O [palmitic acid]
effect on survival and proliferation (cloning efficiency) [2]: helpful in enhancing the survival and proliferation | cloning efficiency in comparison to the 3 fatty acid-loaded albumin [4]: comparable cloning efficiencies

A1: BSA of Supplier A lot 1, already comprising 3000-7000 ug/g overall fatty acid
cloning efficiency of albumin without the additional two free fatty acids [1]: lowest cloning efficiencies | cloning efficiency when albumin is provided along with two free fatty acids [1]: not enhanced

CC(C)CCC[C@@H](C)[C@H]1CC[C@H]2[C@@H]3CC=C4C[C@@H](O)CC[C@]4(C)[C@H]3CC[C@]12C [cholesterol]
effect on survival and proliferation (cloning efficiency) [2]: helpful in enhancing the survival and proliferation

CCCCCCCC/C=C\CCCCCCCC(=O)O [oleic acid]
effect on survival and proliferation (cloning efficiency) [2]: helpful in enhancing the survival and proliferation | cloning efficiency in comparison to the 3 fatty acid-loaded albumin [4]: comparable cloning efficiencies
